The subject of assay [1] is Poly I:C-induced cholestatic liver disease animal models. The assay is described as follows: Treatment effect in Poly I:C-induced primary biliary cirrhosis (PBC) mouse animal models. The format is in vivo, C57BL/6 male mice. The procedure: Of cholestatic liver diseases, primary biliary cirrhosis (PBC) may be introduced to a similar state by using a viral RNA mimic and the Toll-like receptor polyinosinic-polycytidylic acid (Poly I:C). After 8-week-old C57BL/6 male mice (Samtako, Korea) were divided into each group (=6), each experimental group excluding a normal group was intraperitoneally administered 5 mg/kg Poly I:C twice a week for 8 weeks. Thereafter, the mice were fed a diet with control (vehicle), β-lapachone 40 mg/kg, β-lapachone 80 mg/kg, and positive control ursodeoxycholic acid 100 mg/kg and obeticholic acid 30 mg/kg for 8 weeks. On the 16th week of treatment, the experiment was ended, and the mice were sacrificed and then the blood was collected from the heart.

Assay [2] has as its system peripheral blood mononuclear cells (PBMCs). As to the kind of experiment: IL-1β and IL-18 expression in LPS and ATP treated peripheral blood mononuclear cells. The format is cell-based, C57BL/6 male mice. The note with it: LPS 200 ng/mL and ATP, β-lapachone 0.5, 1, 2 μM, 4 hours. The procedure: Considering that inflammatory cytokines mediate the pathogenic mechanism of cholestatic liver disease, the peripheral blood mononuclear cell model was used by a modified method of Boyum et al. (1968). Peripheral blood mononuclear cells isolated from healthy 8-week-old C57BL/6 male mice (Samtako, Korea) were maintained by primary culture in RPMI-1640 medium containing 10% FBS, 2 mM glutamine, 100 U penicillin, and 0.1 mg/ml streptomycin. Stable peripheral blood mononuclear cells (PBMCs) were treated with LPS at 200 ng/mL and ATP and β-lapachone at 0, 0.5, 1, 2 μM in the medium and, after 4 hours, the expression levels of IL-1β and IL-18 were investigated, and the results are shown in FIG. 15.

Assay [3] has as its system DSS-induced inflammatory bowel disease mice. As to the kind of experiment: DSS-induced inflammatory bowel disease (acute colitis) mouse models. As to conditions: for mortality (percent of mice that died): 14th day of the experiment, 70% died in DSS-induced IBD mice. It is filed as in vivo, C57BL/6 female mice. The procedure: Dextran sodium sulfate (DSS)-induced acute colitis mouse models were constructed using 8-week-old C57BL/6 female mice (Samtako, Korea).
After 8-week-old C57BL/6 female mice (Samtako, Korea) were divided into each group (=10), each experimental group was fed a standard rodent diet supplemented with 3% (w/w) DSS in drinking water for the first 5 days to induce acute colitis and orally administered control (vehicle), β-lapachone 40 mg/kg, and β-lapachone 80 mg/kg for 14 days.
All animal-related procedures were discussed and approved by the Institutional Animal Care and Use Committee of the Hanyang University. The survival rate over time is shown in FIG. 9, and the change rate in body weight of mice in each experimental group was measured and shown in FIG. 10A. The fecal occult bleeding per rectum, total bleeding loss, and fecal concentration were measured daily.
By the same method as in Example 6.1, experimental groups were divided into a DSS untreated group (Control), a DSS treated group, and a DSS-+β-lapachone 80 mg/kg treated group, respectively, and treated. After the end of the experiment, the mice were sacrificed to remove the colon, and the accurate colon length was measured using a Vernier caliper, and is shown FIGS. 11A and 11B. In addition, the mRNA levels of genes of interleukin-1beta (IL-1β), interleukin-6 (IL-6), interleukin-18 (IL-18), interferon-γ (INF-γ), tumor necrosis factor-α (TNF-α), tumor necrosis factor-β (TNF-β), and monocyte chemoattractant protein-1 (MCP-1), which were inflammatory cytokine factors in the colon tissue, were analyzed by a real-time polymerase chain reaction through a conventional experiment procedure, and are shown in FIG. 12.

The subject of another assay is macrophage line Raw264.7. The assay is described as follows: Inflammatory cytokine release in LPS and ATP treated macrophage line Raw264.7 (ELISA). It is filed as cell-based. The note with it: Raw264.7, LPS 100 ng/ml, ATP 2.5 mM, 0.2, 0.5, 1, 2 μM β-lapachone, 24 hours; supernatant ELISA. The procedure: The macrophage line Raw264.7 (ATCC TIB-71, Manassas, VA, USA) was subcultured in DMEM supplemented with 10% FBS and 1% penicillin/streptomycin.
For inflammation induction, RAW264.7 cells were suspended in DMEM containing 2% FBS, inoculated in a 12-well plate to a cell number of 4×10^5/ml, and incubated in 5% CO2 incubator at 37° C. for 24 hours. With replacement with fresh media, the cells were treated with appropriate concentrations of a corresponding substance, LPS (100 ng/ml), and 0.2, 0.5, 1, and 2 μM β-lapachone, cultured for 24 hours, treated with ATP (2.5 mM), and then cultured for additional 30 minutes, and the supernatant was collected. The release of cytokines (IL-1β and TNF-α) of RaW264.7 macrophages was quantified using each cell-free supernatant-ELISA set (Invitrogen, Billerica, MA, USA) by Invitrogen according to the manufacture's instruction, and is shown in FIG. 14.

Setting [4] is: Poly I:C 5 mg/kg i.p. 8 weeks, then β-lapachone 40, 80 mg/kg in diet 8 weeks.
[5] abbreviates: DSS + β-lapachone 80 mg/kg vs DSS.

As to `CC1(C)CCC2=C(O1)c1ccccc1C(=O)C2=O` [β-lapachone], in assay [1] (setting [4]), the “ALP in the blood” value was “inhibited”, the “ALT in the blood” value is “inhibited” and the “AST in the blood” value is recorded as “inhibited”. Moreover, the “effect on blood indexes (AST, ALT, ALP) compared with comparative substances” value in assay [1] (vs ursodeoxycholic acid 100 mg/kg and obeticholic acid 30 mg/kg) is “excellent effect compared with the comparative substances ursodeoxycholic acid (UDCA) and obeticholic acid (OCA)”. In addition, in assay [2], the “expression level of IL-1β increased by LPS and ATP” value is reported as “reduced depending on the concentration”; the “expression level of IL-18 increased by LPS and ATP” value was “reduced depending on the concentration”. In assay [3] (setting [5]), the “mRNA level of IL-1β in colon tissue” value is recorded as “significantly reduced”, the “mRNA level of IL-6 in colon tissue” value is “significantly reduced”, the “mRNA level of IL-18 in colon tissue” value is reported as “significantly reduced” and the “mRNA level of INF-γ in colon tissue” value is “significantly reduced”. Moreover, in assay [3] (setting [5]), the “mRNA level of MCP-1 in colon tissue” value is listed as “significantly reduced”, the “mRNA level of TNF-α in colon tissue” value was “significantly reduced” and the “mRNA level of TNF-β in colon tissue” value is “significantly reduced”. For the same molecule, in assay [3] (DSS + β-lapachone 80 mg/kg vs DSS treated group), the colon length entry was “recovered”. In addition, the colitis score entry in assay [3] (sum of scores for body weight reduction, feces condition, blood feces (Table 3), β-lapachone 40 and 80 mg/kg) is “reduced depending on the treatment concentration”. Further, the “mortality (percent of mice that died)” value in assay [3] (β-lapachone 40 mg/kg orally) is listed as 50%. The “mortality (percent of mice that died)” value in assay [3] (β-lapachone 80 mg/kg orally) is 20%. In the assay with macrophage line Raw264.7, the “expression level of IL-1β protein increased by LPS and ATP” value was “reduced depending on the concentration”; the “expression level of TNF-α protein increased by LPS and ATP” value is “reduced depending on the concentration”.

Source of the values: patent publication US12128023B2, “Pharmaceutical composition containing B-lapachone as active ingredient for prevention or treatment of cholestatic liver disease” (CUROME BIOSCIENCES CO., LTD., priority 2020, dated 2024).
